Here are results for eleven compounds from patent US20260193226A1, “MICROBIOCIDAL TETRAHYDROISOQUINOLINE DERIVATIVES” (SYNGENTA CROP PROTECTION AG, priority 2022, published 2026).

SMILES strings stand for the structures.

One assay concerns Alternaria solani. Kind of assay: Alternaria solani / tomato / leaf disc (early blight). Format: in vivo. The note with it: foliar, compared to untreated control. The procedure: Example B1: Alternaria solani/Tomato/Leaf Disc (Early Blight) Tomato leaf disks cv. Baby are placed on agar in multiwell plates (24-well format) and sprayed with the formulated test compound diluted in water. The leaf disks are inoculated with a spore suspension of the fungus 2 days after application. The inoculated leaf disks are incubated at 23° C./21° C.

The test system of assay [1] is Glomerella lagenarium (Colletotrichum lagenarium). Kind of assay: Glomerella lagenarium (Colletotrichum lagenarium) / liquid culture (anthracnose). The assay is classed as cell-based. The note with it: Colletotrichum orbiculare, compared to untreated control. The procedure:
Example B3: Glomerella lagenarium (Colletotrichum lagenarium)/Liquid Culture (Anthracnose) Conidia of the fungus from cryogenic storage are directly mixed into nutrient broth (PDB potato dextrose broth). After placing a (DMSO) solution of test compound into a microtiter plate (96-well format), the nutrient broth containing the fungal spores is added. The test plates are incubated at 24° C. and the inhibition of growth is measured photometrically 3 to 4 days after application.

Assay [2] relates to Monographella nivalis (Microdochium nivale). Kind of assay: Monographella nivalis (Microdochium nivale) / liquid culture (foot rot cereals). Format: cell-based. The note with it: compared to untreated control. Here is the method: Example B8: Monographella nivalis (Microdochium nivale)/Liquid Culture (Foot Rot Cereals) Conidia of the fungus from cryogenic storage are directly mixed into nutrient broth (PDB potato dextrose broth). After placing a (DMSO) solution of test compound into a microtiter plate (96-well format), the nutrient broth containing the fungal spores is added. The test plates are incubated at 24° C. and the inhibition of growth is determined photometrically 4 to 5 days after application.

The subject of assay [3] is Mycosphaerella arachidis (Cercospora arachidicola). Kind of assay: Mycosphaerella arachidis (Cercospora arachidicola) / liquid culture (early leaf spot). Format: cell-based. The note with it: compared to untreated control. The procedure: Example B9: Mycosphaerella arachidis (Cercospora arachidicola)/Liquid Culture (Early Leaf Spot) Conidia of the fungus from cryogenic storage are directly mixed into nutrient broth (PDB potato dextrose broth). After placing a (DMSO) solution of test compound into a microtiter plate (96-well format), the nutrient broth containing the fungal spores is added. The test plates are incubated at 24° C. and the inhibition of growth is determined photometrically 4 to 5 days after application.

A further assay has as its system Pyrenophora teres. The assay is described as follows: Pyrenophora teres / barley / leaf disc preventative (net blotch). The assay is classed as in vivo. The note with it: foliar, compared to untreated control. The procedure: Example B12: Pyrenophora teres/Barley/Leaf Disc Preventative (Net Blotch) Barley leaf segments cv. Hasso are placed on agar in a multiwell plate (24-well format) and sprayed with the formulated test compound diluted in water. The leaf segments are inoculated with a spore suspension of the fungus 2 days after application. The inoculated leaf segments are incubated at 20° C. and 65% rh under a light regime of 12 h light/12 h darkness in a climate cabinet and the activity of a compound is assessed as disease control compared to untreated when an appropriate level of disease damage appears in untreated check leaf segments (5 to 7 days after application).

Assay [4] concerns Mycosphaerella graminicola (Septoria tritici). Kind of assay: Mycosphaerella graminicola (Septoria tritici) / liquid culture (Septoria blotch). The assay is classed as cell-based. The note with it: Zymoseptoria tritici, compared to untreated control. The procedure:
Example B15: Mycosphaerella graminicola (Septoria tritici)/Liquid Culture (Septoria Blotch) Conidia of the fungus from cryogenic storage are directly mixed into nutrient broth (PDB potato dextrose broth). After placing a (DMSO) solution of test compound into a microtiter plate (96-well format), the nutrient broth containing the fungal spores is added. The test plates are incubated at 24° C. and the inhibition of growth is determined photometrically 4 to 5 days after application.

The next assay concerns Pythium ultimum. The assay is described as follows: Pythium ultimum / liquid culture (seedling damping off). The assay is classed as cell-based. Conditions: 20 ppm, compared to untreated control. Here is the method:
Example B13: Pythium ultimum/Liquid Culture (Seedling Damping Off) Mycelia fragments and oospores of a newly grown liquid culture of the fungus are directly mixed into nutrient broth (PDB potato dextrose broth). After placing a (DMSO) solution of test compound into a microtiter plate (96-well format), the nutrient broth containing the fungal mycelia/spore mixture is added. The test plates are incubated at 24° C. and the inhibition of growth is determined photometrically 2 to 3 days after application.

Another assay concerns Phytophthora infestans. Format: in vivo. Conditions: 200 ppm; tomato leaf disc preventative; compared to untreated control.
For assay [5], the system named is Gibberella zeae (Fusarium graminearum). The assay is classed as in vivo. The note with it: 200 ppm; wheat spikelet preventative; compared to untreated control.

As to `CCCCCCC(=O)N1C[C@H](c2cnn(C)c2C)c2ccccc2[C@@H]1C` (racemic) [Compound P-11, 1-[rac-(1S,4S)-4-(1,5-dimethylpyrazol-4-yl)-1-methyl-3,4-dihydro-1H-isoquinolin-2-yl]heptan-1-one], the pest or weed control at 200 ppm in the assay on Alternaria solani and with Pyrenophora teres was at least 80% throughout. The inhibition of growth at 20 ppm in assay [1], in assay [2], in assay [3] and in [4] was at least 80% throughout.

With `Cc1c([C@H]2CN(C(=O)OCCC3CCCCC3)[C@@H](C)c3ccccc32)cnn1C` (racemic) [Compound P-16, 2-cyclohexylethyl rac-(1S,4S)-4-(1,5-dimethylpyrazol-4-yl)-1-methyl-3,4-dihydro-1H-isoquinoline-2-carboxylate], the inhibition of growth at 20 ppm in assay [1], in assay [2], in assay [3] and in [4] was at least 80% throughout.

As for `CCCCCOC(=O)N1C[C@H](c2cnn(C)c2C)c2ccccc2[C@@H]1C` (racemic) [Compound P-28, pentyl rac-(1S,4S)-4-(1,5-dimethylpyrazol-4-yl)-1-methyl-3,4-dihydro-1H-isoquinoline-2-carboxylate], the pest or weed control at 200 ppm with Alternaria solani is at least 80%. Besides, the inhibition of growth at 20 ppm in assay [1], in [2], in [3] and in assay [4] was at least 80% throughout.

For `Cc1c([C@H]2CN(C(=O)CCc3ccc(F)cc3F)[C@@H](C)c3ccccc32)cnn1C` (racemic) [Compound P-45, 3-(2,4-difluorophenyl)-1-[rac-(1S,4S)-4-(1,5-dimethylpyrazol-4-yl)-1-methyl-3,4-dihydro-1H-isoquinolin-2-yl]propan-1-one], the pest or weed control at 200 ppm in the assay with Alternaria solani and in the assay with Pyrenophora teres was at least 80% in each case. In addition, the inhibition of growth at 20 ppm in [1], in [2], in assay [3] and in assay [4] was at least 80% in each case.

As for `Cc1c(C2CN(C(=O)OCCC3CCCCC3)Cc3ccccc32)cnn1C` (stereo not drawn) [Compound P-2, 2-cyclohexylethyl 4-(1,5-dimethylpyrazol-4-yl)-3,4-dihydro-1H-isoquinoline-2-carboxylate], the inhibition of growth at 20 ppm in assay [1], in assay [2], in assay [3] and in [4] was at least 80% each time.

Regarding `CCCCCCC(=O)N1Cc2ccccc2C(c2cnn(C)c2C)C1` (stereo not drawn) [Compound P-4, 1-[4-(1,5-dimethylpyrazol-4-yl)-3,4-dihydro-1H-isoquinolin-2-yl]heptan-1-one], the pest or weed control at 200 ppm in the assay on Alternaria solani is at least 80%. In addition, the inhibition of growth at 20 ppm in assay [1], in assay [2], in assay [3] and in assay [4] was at least 80% each time.

Consider `Cc1c(C2CN(C(=O)CCc3ccc(F)cc3F)Cc3ccccc32)cnn1C` (stereo not drawn) [Compound P-6, 3-(2,4-difluorophenyl)-1-[4-(1,5-dimethylpyrazol-4-yl)-3,4-dihydro-1H-isoquinolin-2-yl]propan-1-one], for which the pest or weed control at 200 ppm in the assay with Alternaria solani and in the assay on Pyrenophora teres was at least 80% throughout. Also, the inhibition of growth at 20 ppm in [3] and in [4] was at least 80% throughout. In the assay on Pythium ultimum, the “control of Pythium ultimum” value is recorded as “at least 80%”.

With `CCCCCCCC(=O)N1Cc2ccccc2C(c2cnn(C)c2C)C1` (stereo not drawn) [Compound P-10, 1-[4-(1,5-dimethylpyrazol-4-yl)-3,4-dihydro-1H-isoquinolin-2-yl]octan-1-one], the inhibition of growth at 20 ppm in assay [1], in assay [2], in [3] and in assay [4] was at least 80% throughout.

On to `Cc1c(C2CN(C(=O)CCC3CCCC3)Cc3ccccc32)cnn1C` (stereo not drawn) [Compound P-17, 3-cyclopentyl-1-[4-(1,5-dimethylpyrazol-4-yl)-3,4-dihydro-1H-isoquinolin-2-yl]propan-1-one], for which the “control of Phytophthora infestans” value in the assay on Phytophthora infestans was “at least 80%”. This compound also came in with an inhibition of growth at 20 ppm in [4] of at least 80%.

For `Cc1c([C@H]2CN(C(=O)CCCCCC(F)F)[C@@H](C)c3ccccc32)cnn1C` [Compound P-46, 1-[(1S,4S)-4-(1,5-dimethylpyrazol-4-yl)-1-methyl-3,4-dihydro-1H-isoquinolin-2-yl]-7,7-difluoro-heptan-1-one], the pest or weed control at 200 ppm in the assay with Alternaria solani and in the assay on Pyrenophora teres was at least 80% throughout. The inhibition of growth at 20 ppm in [1], in [2], in assay [3] and in assay [4] was at least 80% in each case. Besides, the “control of Gibberella zeae” value in assay [5] was “at least 80%”.

Regarding `Cc1c([C@H]2CN(C(=O)CCCCC3CC3)[C@@H](C)c3ccccc32)cnn1C` [Compound P-47, 5-cyclopropyl-1-[(1S,4S)-4-(1,5-dimethylpyrazol-4-yl)-1-methyl-3,4-dihydro-1H-isoquinolin-2-yl]pentan-1-one], the pest or weed control at 200 ppm in the assay on Alternaria solani and in the assay on Pyrenophora teres was at least 80% throughout. For the same compound, the inhibition of growth at 20 ppm in assay [1], in assay [2], in assay [3] and in [4] was at least 80% each time.
